# Data as given in patent US20240300945A1, “CLY SERIES COMPOUND, PREPARATION METHOD THEREFOR AND USE THEREOF IN PREPARATION OF DRUGS” (NANJING WELLBEST PHARMACEUTICAL CO., LTD, priority 2021, published 2024).
# Tests used:
# [1] = tested on: skin hair follicles and sebaceous glands of mice; experiment: Mouse hair loss model: histopathological grading of skin hair follicles and sebaceous glands; type: in vivo, C57BL/6 mice; details: external 2% tincture, 60 days, 6 mice per group; for number of mice with hair follicle and sebaceous gland grade +++: grade +++ (most severe); for number of mice with hair follicle and sebaceous gland grade ±: grade ± (lesions limited); for number of mice with hair follicle and sebaceous gland grade −: grade − (normal structure)
# Excerpt: The experimental mice were divided into the negative control group (external use of 60% ethanol), model group (external use of 60% ethanol), positive control group (external use of 2% minoxidil tincture), CLY-1 external treatment group (external use of 2% CLY-1 tincture), CLY-2 external treatment group (external use of 2% CLY-2 tincture), CLY-3 external treatment group (external use of 2% CLY-3 tincture), CLY-4 external treatment group (external use of 2% CLY-4 tincture), CLY-8 external treatment group (external use of 2% CLY-8 tincture) CLY-11 external treatment group (2% CLY-11 tincture), CLY-19 external treatment group (2% CLY-19 tincture), CLY-36 external treatment group (2% CLY-36 tincture), and CLY-39 external treatment group (2% CLY-39 tincture). There were 6 animals in each group, half male and half female. An area of 4 cm×5 cm from the back of experimental mice with hair removed was selected, and the hair removal area was painted yellow with 3% picric acid solution to determine the observation area of the hair removal experiment. In addition to the negative control group, mice in other groups were injected subcutaneously with testosterone propionate injection [8 ml/(kg·d)] at the back of the neck, once a day, for 60 consecutive days, to establish the model of androgenic alopecia (AGA). At the same time of modeling, the rats in the corresponding drug group were smeared with drugs on the observation area of the back at the rate of 1 ml/(piece·time), twice a day, with an interval of 2 hours. The normal control group and the model control group were smeared with the excipient (60% ethanol solution), 1 ml/(one time), twice a day, for 60 consecutive days.
# 10 hairs were extracted from the observation area on the back of each mouse every 15 days after administration, and the hair length was measured with a vernier caliper. After 60 days of administration, the skin of the experimental observation area was taken for routine tissue dehydration, paraffin embedding, HE staining, and light microscopy to observe the histopathological changes of mouse skin hair follicles and sebaceous glands. Semi-quantitative analysis was performed for each group. The grading criteria are as follows: the normal structure of dermal tissue cells, subcutaneous hair follicles, and sebaceous glands is marked as […]: no hyperplasia of dermal tissue is found, the lesions of hair follicles and sebaceous glands are limited, and no inflammation is found under the skin is marked as “+”: no obvious hyperplasia of dermal tissue is found, and the follicles are obviously cystic. No obvious hyperplasia of sebaceous glands is found, and no inflammation is found under the skin is marked as “+”: the dermal tissue has segmental hyperplasia, which is not obvious, A small number of hair follicles have cystic changes, and the sebaceous glands have mild hyperplasia and hypertrophy. There is no obvious inflammation under the skin, which is marked as “++”: the dermal tissue cells of the skin have different degrees of segmental hyperplasia, and some hair follicles have cystic changes, showing uneven size of hair follicles, and no cells around. The sebaceous glands have hyperplasia, and the nuclei in the proliferative glands are few. A few subcutaneous mild inflammatory hyperplasia is marked as “+++”.
# [2] = tested on: skin melanocytes; experiment: Chloasma model of guinea pig: pathomorphological observation of skin melanocytes; type: in vivo; set-up: Average gray level (melanocyte depth): scale not given here; details: 0.25% cream once a day, 30 days
# Excerpt: According to the body weight, they were randomly divided into the model control group (applied cream matrix), blank control group (applied cream matrix), CLY-1 treatment group (applied 0.25% CLY-1 cream on the skin), CLY-2 treatment group (0.25% CLY-2 cream on the skin), CLY-3 treatment group (0.25% CLY-3 cream on the skin), CLY-4 treatment group (0.25% CLY-4 cream on the skin), CLY-5 treatment group (0.25% CLY-5 cream on the skin) CLY-8 treatment group (0.25% CLY-8 cream on the skin), CLY-11 treatment group (0.25% CLY-11 cream on the skin), CLY-19 treatment group (0.25% CLY-19 cream on the skin), CLY-36 treatment group (0.25% CLY-36 cream on the skin), CLY-39 treatment group (0.25% CLY-39 cream on the skin), positive treatment group (0.25% arbutin cream on the skin), 6 in each group. In addition to the blank control group, all guinea pigs in the other groups were injected with 20 mg/ml progesterone injection (7.5 mg/kg) into the muscle at the root of the hind leg, once a day, for 30 consecutive days to establish the chloasma model. […] After modeling, the guinea pigs in the model control group, blank control group, each CLY series treatment group, and positive treatment group were treated with corresponding cream on the back for intervention, once a day, for 30 consecutive days.
# Took 1 piece of spare skin tissue from each of all guinea pigs, about 2 cm×1 cm, 10% paraformaldehyde fixation, pathological tissue detection, immunohistochemical staining, observation of melanocyte staining and number, and judgment of positive cells according to the literature: none, 0 point<15%, 0.5 points<30%, 1 point; >30%, 2 points. Observed 5 visual fields in each slice, found out the positive target with brown reaction in the cytoplasm of skin epidermis and accessory epithelial cells, and used BX50F4 Beihang pathological image analysis system for quantitative analysis to obtain the average area, the ratio of target area to statistical field area (areal density), the ratio of target number to statistical field area (number density), the average gray level, the average optical density and the integrated optical density of each guinea pig's 5 visual fields of melanin positive target.
# SPSS16.0 software was used for statistics. The measurement data were expressed by mean±standard deviation (x±s). The comparison between multiple groups was performed by one-way ANOVA, and the comparison between groups was performed by t-test. P<0.05 was statistically significant.
compound,measurement,setting,value
CNC1CCCC(N(C(=O)c2ccc(-n3nnc4cccnc43)cc2)c2ncccc2Cl)C1 (stereo not drawn) [CLY-3],number of mice with hair follicle and sebaceous gland grade +++,[1],0
same,number of mice with hair follicle and sebaceous gland grade ++,[1],2
same,number of mice with hair follicle and sebaceous gland grade +,[1],1
same,number of mice with hair follicle and sebaceous gland grade ±,[1],3
same,number of mice with hair follicle and sebaceous gland grade −,[1],0
same,Area density of melanocytes,[2],0.008 ± 0.003
same,Area of melanocytes,[2],436.32 ± 79.12 um2
same,Average gray level (melanocyte depth),[2],0.52 ± 0.08
same,Average optical density (melanocyte depth),[2],11.42 ± 1.32
same,Integrated optical density (melanocyte depth),[2],95.36 ± 9.86
same,Number density of melanocytes,[2],2.82 ± 1.25
same,Number of melanocytes,[2],2.13 ± 0.61
"O=C(c1ccc(-n2nnc3cccnc32)cc1)N(c1ncccc1Cl)[C@@H]1CCNC1 [CLY-8, (R)-4-(3H-[1,2,3]triazolo[4,5-b]pyridin-3-yl)-N-(3-chloropyridin-2-yl)-N-(pyrrolidin-3-yl)benzamide]",number of mice with hair follicle and sebaceous gland grade +++,[1],0
same,number of mice with hair follicle and sebaceous gland grade ++,[1],0
same,number of mice with hair follicle and sebaceous gland grade +,[1],2
same,number of mice with hair follicle and sebaceous gland grade ±,[1],4
same,number of mice with hair follicle and sebaceous gland grade −,[1],0
same,Area density of melanocytes,[2],0.003 ± 0.001
same,Area of melanocytes,[2],341.26 ± 54.82 um2
same,Average gray level (melanocyte depth),[2],0.39 ± 0.04
same,Average optical density (melanocyte depth),[2],10.48 ± 1.11
same,Integrated optical density (melanocyte depth),[2],103.15 ± 9.52
same,Number density of melanocytes,[2],1.71 ± 1.26
same,Number of melanocytes,[2],1.36 ± 0.29
NC1CCCC(N(C(=O)c2ccc(-n3nnc4cccnc43)cc2)c2ncccc2Cl)C1 (stereo not drawn) [CLY-11],number of mice with hair follicle and sebaceous gland grade +++,[1],0
same,number of mice with hair follicle and sebaceous gland grade ++,[1],2
same,number of mice with hair follicle and sebaceous gland grade +,[1],1
same,number of mice with hair follicle and sebaceous gland grade ±,[1],3
same,number of mice with hair follicle and sebaceous gland grade −,[1],0
same,Area density of melanocytes,[2],0.006 ± 0.002
same,Area of melanocytes,[2],417.53 ± 73.16 um2
same,Average gray level (melanocyte depth),[2],0.46 ± 0.06
same,Average optical density (melanocyte depth),[2],11.26 ± 1.22
same,Integrated optical density (melanocyte depth),[2],101.38 ± 9.92
same,Number density of melanocytes,[2],2.16 ± 1.38
same,Number of melanocytes,[2],1.98 ± 0.56
O=C(c1ccc(-c2ccccc2-c2nnn[nH]2)cc1)N(c1ncccc1Cl)[C@@H]1CCCNC1 [CLY-19],number of mice with hair follicle and sebaceous gland grade +++,[1],0
same,number of mice with hair follicle and sebaceous gland grade ++,[1],1
same,number of mice with hair follicle and sebaceous gland grade +,[1],2
same,number of mice with hair follicle and sebaceous gland grade ±,[1],3
same,number of mice with hair follicle and sebaceous gland grade −,[1],0
same,Area density of melanocytes,[2],0.006 ± 0.003
same,Area of melanocytes,[2],405.62 ± 73.45 um2
same,Average gray level (melanocyte depth),[2],0.45 ± 0.06
same,Average optical density (melanocyte depth),[2],11.28 ± 1.24
same,Integrated optical density (melanocyte depth),[2],102.65 ± 9.97
same,Number density of melanocytes,[2],2.18 ± 1.35
same,Number of melanocytes,[2],1.95 ± 0.52
O=C(c1ccc(-c2ccccc2Cl)cc1)N(c1ncccc1Cl)[C@@H]1CCCNC1 [CLY-36],number of mice with hair follicle and sebaceous gland grade +++,[1],0
same,number of mice with hair follicle and sebaceous gland grade ++,[1],2
same,number of mice with hair follicle and sebaceous gland grade +,[1],1
same,number of mice with hair follicle and sebaceous gland grade ±,[1],3
same,number of mice with hair follicle and sebaceous gland grade −,[1],0
same,Area density of melanocytes,[2],0.007 ± 0.004
same,Area of melanocytes,[2],495.32 ± 79.43 um2
same,Average gray level (melanocyte depth),[2],0.47 ± 0.07
same,Average optical density (melanocyte depth),[2],11.53 ± 1.22
same,Integrated optical density (melanocyte depth),[2],97.62 ± 9.91
same,Number density of melanocytes,[2],2.67 ± 1.38
same,Number of melanocytes,[2],1.98 ± 0.59
O=C(c1ccc(-n2nnc3cccnc32)cc1)N(c1ncccc1Cl)C1CCCC(O)C1 (stereo not drawn) [CLY-4],number of mice with hair follicle and sebaceous gland grade +++,[1],0
same,number of mice with hair follicle and sebaceous gland grade ++,[1],2
same,number of mice with hair follicle and sebaceous gland grade +,[1],2
same,number of mice with hair follicle and sebaceous gland grade ±,[1],2
same,number of mice with hair follicle and sebaceous gland grade −,[1],0
same,Area density of melanocytes,[2],0.009 ± 0.003
same,Area of melanocytes,[2],496.56 ± 86.23 um2
same,Average gray level (melanocyte depth),[2],0.58 ± 0.09
same,Average optical density (melanocyte depth),[2],11.61 ± 1.38
same,Integrated optical density (melanocyte depth),[2],92.45 ± 9.36
same,Number density of melanocytes,[2],2.95 ± 1.41
same,Number of melanocytes,[2],2.45 ± 0.67
